Test results: US6878730B2, “Quaternary ammonium compounds” (Pharmacia & UpJohn, priority 2002, dated 2005)

Assay: Aerosol treatment for dyspnea, FEV1/FVC ratio
Assay type: in vivo
Details: aerosol formulation, 50 μg every 8 hr continuously for dyspnea; after a week of treatment
Description: Ten minutes and 36 hours later, the mice are moved to whole body plethysmograph chambers. Bronchoconstriction is induced in mice by administration of an 80 mg/ml methacholine (MC) aerosol into the plethysmograph chambers for 5 minutes. The mice are allowed to inhale an aerosol containing 80 mg/ml methacholine following inhalation treatment with DPBS vehicle (Dulbecco's Phosphate Buffered Saline), or 80 mg/ml methacholine following inhalation treatment with 1.29 mg/ml of the title compound of example I. The average enhanced pause (Penh, lung resistance), corresponding to airflow resistance, is determined and statistically analyzed using Kruskal-Wallis one way ANOVA. In order to determine the baseline, saline aerosol (without methacholine) is also separately administered to the mice, treated with the compound of example I in an aerosol formulation, 50 μg every 8 hr continuously for dyspnea. After a week of treatment, the FEV1/FVC ratio improves to about 65%.

## C[N+]1(Cc2cccc(N)n2)CCC(NC(=O)[C@](O)(c2ccccc2)[C@@H]2CCC(F)(F)C2)CC1.[I-] (stereo partly drawn) [Example I, (2R)-N-[1-(6-aminopyridin-2-ylmethyl)1-methylpiperdin-4-yl]-2-[(1R)-3,3,-difluorocyclopentyl]-2-hydroxy-2-phenylacetamide iodide]
  FEV1/FVC ratio: about 65%
